Source: paper PMC10447463, “Data-mining unveils structure–property–activity correlation of viral infectivity enhancing self-assembling peptides” (Nature Communications, 2023)
Read-outs that look alike come from different tables or passages of the source.

Legend:
Assay type in all cases: physicochemical
[1] = Aggregate analysis by widefield fluorescence microscopy
Method: 4 µL of 1 mg/mL peptide fibrils solution is added to a 20 µL, 50 µM ThT–solution in PBS. The mixture is incubated for 15 min at RT to allow binding of ThT dye with β–sheet rich structures. For reference PBS (4 µL) was added instead of peptide fibril solution. The samples were placed in black UV Star® 384 microliter well–plates (Greiner bio–one). Fluorescence spectra were recorded on an Infinite® M1000 PRO microplate reader (Tecan) at λem = 488 nm upon excitation at λex = 440 nm with 10 nm bandwidths and multiple reads per well (3×3). Measurements were repeated in triplicates and averaged with standard deviation. A peptide fibril was considered as ThT-active if the fluorescence intensity was at least twice as strong compared to the control (PBS containing 10% DMSO). Zeta-Potential. For the determination of the surface charge of aggregated peptides zeta-potential measurements were conducted with a Zetasizer Nano ZS, Malvern Instruments. Unless stated otherwise the peptides were dissolved from DMSO (10 mg/mL) in PBS (pH 7.4) to concentration of 1 mg/mL and incubated for 1d at RT. Just before the measurement the 60 µL of the peptides were further diluted in 600 µL KCl (aq, 1 mM) in a 1 mL disposable folded capillary cells (DTS–1060, Zetasizer Nano series, Malvern). The zeta potential of the peptides was derived from the electrophoretic mobility based on the Smoluchowski formula. All measurements were averaged over two individually performed experiments and conducted in triplicates for each sample. Aggregate analysis. […] Furthermore, fluorescence microscopy was conducted by staining 1 µL preformed fibrils (1 mg/mL) with 9 µL ThT (50 µM). Brightfield microscopy was performed simultaneously to evaluate aggregation also for non ThT-active fibrils. The measurements were performed on a Leica DMi8 microscope with 10x air objective and equipped with a Leica MC170 HD camera with a filter setting λem = 527/30 nm upon excitation at λex = 480/40 nm) and processed with the Leica LASX software. To quantify size and number of microscopic aggregation of particles > 10 µm^2 at least 3 independently measured images were analyzed via the 3D object counter analysis tool of ImageJ, v 1.53f51. Sum–frequency generation. The SFG experiments were carried out with a femtosecond Ti: Sapphire amplified laser system (Spitfire Ace, Spectra–Physics, 800 nm, 40 fs, 1 kHz) with 5 W output power. We used 2 W to pump an optical parametric amplifier (TOPAS, light conversion) with a non–collinear difference frequency generation stage to generate broadband IR pulses. Another 1 W of the laser output passed through an etalon to generate narrowband visible pulses (10 cm^-1). The incident angles of the visible and IR beams were 36° and 41° with respect to the surface normal, respectively. The visible (13 µJ) and IR (5 µJ) pulses were overlapped spatially and temporally at the sample position. Subsequently, the generated SFG pulse was guided into a spectrograph (Acton SP 300i, Princeton Instruments), and detected with an EMCCD (Newton, Andor Technology). To avoid IR absorption of water vapor, we purged N2 for the measurement. All spectra were collected in the ssp (denoting s-, s- and p-polarized SFG, visible and IR, respectively) polarization combination. The spectra were normalized to the non–resonant signal taken from z–cut quartz after subtracting a background spectrum.
Table S8 Summary of aggregate analysis from widefield microscopy measurements (Figure S32). The Number of aggregated peptides, the median size area, average size area
and the cumulative total size area of all particles (> 10 µm2) in an area of 1330 µm × 1330 µm was determined via automated 3D object counting (ImageJ) in triplicate
measurements (Std. Dev.).
Aggregate Std. Dev. Std. Dev. Std. Dev. Std. Dev.
Sequence Abs. Inf. / Std. Dev. / Count Rate / Std. Dev. Number Aggregate Median Area Median Area Average Area Average Area Total Area/ Total Area/ […]

[2] = Conversion rate (CR) assay with fluorescamine
Method in brief: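 β-sheet content came from ATR FT-IR spectra of lyophilized 1 mg/mL nanofibril solution (64 scans, 2 cm^-1 resolution). Conversion was measured by separating free monomer with a 3 kDa cutoff filter, then comparing fluorescamine fluorescence (ex 365/em 470 nm, 20 min RT) of filtrate versus unfiltered sample, in triplicate.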

[3] = Turbidity, derived count rate of scattered light; conditions: for Count Rate: derived count rate of scattered light (turbidity); for Log10 Count Rate: turbidity, derived count rate of scattered light, data of Figure 2D
[4] = Fig S8 panels A, C, 3 fields of 1330 µm x 1330 µm
[5] = Fig S8 panels B, D, average aggregate area, 3 fields of 1330 µm x 1330 µm
[6] = Fig S8 panels B, D, median aggregate area, 3 fields of 1330 µm x 1330 µm
[7] = Fig S8 panels B, D, 3 fields of 1330 µm x 1330 µm
[8] = Fig S8 panels B, D, widefield fluorescence microscopy, 3 fields of 1330 µm x 1330 µm

HHHHKIKIKIKIYYYY [TM6]
Avg Area in 3 *(1330 µm *1330 µm) ([1]; Fig S8 panels A, C): 71.63
Log 10 Number of aggregates in 3 * (1330 µm *1330 µm) ([1]; Fig S8 panels A, C): 2.1683
Median Area in 3 * (1330 µm *1330 µm) ([1]; Fig S8 panels A, C): 19.72
log Avg Area in 3 * ( (1330 µm *1330 µm)) ([1]; Fig S8 panels A, C): 1.855
log Median Area in 3 * ( (1330 µm *1330 µm)) ([1]; Fig S8 panels A, C): 1.295
log Total Area of all particles in 3 * (1330 µm *1330 µm) ([1]; Fig S8 panels A, C): 4.023
Number of aggregates in 3 * (1330 µm *1330 µm) [1, 4]: 147.3
Avg Area in 3 *(1330 µm *1330 µm) [1, 5]: 71.63
Median Area in 3 * (1330 µm *1330 µm) [1, 6]: 19.72
Total Area of all particles in 3 * (1330 µm *1330 µm) [1, 7]: 10553.37833
Number of aggregates in 3 * (1330 µm *1330 µm) [1, 8]: 147.3

KAKAQA [JJA2 / TM153]
Conversion Rate / % [2]: 0.3138%
Conversion Rate / % ([2]; fluorescamine assay): 0.3138%

KAKAQANMWQ [JG3]
Conversion Rate / % [2]: 47.47%
Conversion Rate / % ([2]; fluorescamine assay): 47.47%

KFKFQF [JJA6]
Conversion Rate / % [2]: 51.79%
Conversion Rate / % ([2]; fluorescamine assay): 51.79%

KFKFQFNM [BL6a]
Conversion Rate / % [2]: 98.53%
Conversion Rate / % ([2]; fluorescamine assay): 98.53%

KFKFQFNMW
Count Rate [3]: 610.2
Log10 Count Rate [3]: 2.785

KIKIQI [JJA4]
Conversion Rate / % [2]: 32.82%
Conversion Rate / % ([2]; fluorescamine assay): 32.82%

KIKIQINMWQ [JG1]
Conversion Rate / % [2]: 95.68%
Conversion Rate / % ([2]; fluorescamine assay): 95.68%

KIKQII [msis21]
Conversion Rate / % [2]: 19.94%
Conversion Rate / % ([2]; fluorescamine assay): 19.94%

KLKQLL
Count Rate [3]: 319.9
Log10 Count Rate [3]: 2.505

KWKWQW [KB3]
Avg Area in 3 *(1330 µm *1330 µm) ([1]; Fig S8 panels A, C): 112
Log 10 Number of aggregates in 3 * (1330 µm *1330 µm) ([1]; Fig S8 panels A, C): 1.442
Median Area in 3 * (1330 µm *1330 µm) ([1]; Fig S8 panels A, C): 41.405
log Avg Area in 3 * ( (1330 µm *1330 µm)) ([1]; Fig S8 panels A, C): 2.049
log Median Area in 3 * ( (1330 µm *1330 µm)) ([1]; Fig S8 panels A, C): 1.617
log Total Area of all particles in 3 * (1330 µm *1330 µm) ([1]; Fig S8 panels A, C): 3.491
Number of aggregates in 3 * (1330 µm *1330 µm) [1, 4]: 27.67
Avg Area in 3 *(1330 µm *1330 µm) [1, 5]: 112
Median Area in 3 * (1330 µm *1330 µm) [1, 6]: 41.405
Total Area of all particles in 3 * (1330 µm *1330 µm) [1, 7]: 3098
Number of aggregates in 3 * (1330 µm *1330 µm) [1, 8]: 27.67

MKFKFQF [DF5 / CK16]
Conversion Rate / % ([2]; fluorescamine assay): 98.72%

QCKAKAQA [CK24]
Avg Area in 3 *(1330 µm *1330 µm) [1, 5]: 0
Median Area in 3 * (1330 µm *1330 µm) [1, 6]: 0
Total Area of all particles in 3 * (1330 µm *1330 µm) [1, 7]: 0
Number of aggregates in 3 * (1330 µm *1330 µm) [1, 8]: 0

QCKAKAQANMWQ [CK22]
Conversion Rate / % [2]: 89.28%
Conversion Rate / % ([2]; fluorescamine assay): 89.28%

QCKFKFQFNM [CK8]
Conversion Rate / % [2]: 98.94%
Conversion Rate / % ([2]; fluorescamine assay): 98.94%

QCKFKFQFNMWQ [CK7]
Conversion Rate / % [2]: 98.91%
Conversion Rate / % ([2]; fluorescamine assay): 98.91%

RGDKIKIQI
Count Rate [3]: 298.1
Log10 Count Rate [3]: 2.474
